Each molecule was assayed against hCereblon(M1-L442)_hDDB1(M1-H1140) (Homo sapiens (Human), UniProt Q96SW2) (assay: Fluorescence direct binding protocol (tryptophan fluorescence titration)). Settings: 20° C., excited at 280 nm, recorded at 340 nm, assay buffer 50 mM Hepes 7.4 200 mM NaCl; read-out: Fluorescence h-Cereblon_DDB1 Mean Kd_EQ.
Description: Fluorescence Direct Binding Protocol
Determination of the affinities of compounds to protein containing one or more tryptophan is measurable by monitoring the fluorescence emission in direct mode. The measurements depending on the protein available amounts are performed either manually in a cuvette on ISS-PC1 photon counting spectrofluorometer or automatically in well plates on a fluorescence plate reader device. Fluorescence titrations are performed at 20° C. in the chosen binding assay buffer by using a defined constant protein concentration against ligand concentration variations. Small aliquots of known ligand concentration solubilized in DMSO were added and the fluorescence, excited at 280 nm, was recorded at 340 nm. The fluorescence intensity was corrected for protein dilution and for the filter effect (Birdsall et al.^72).
1) Optimization of measurement parameters to minimize protein consumption and to minimize the dilution effect and the DMSO content
2) Titration measurements of the protein against ligand by at least 12 titration steps to obtain a good s-curve fit
3) Repeat the same titration measurements with the ligand alone to enable correction
4) Check the stability of the protein once by titration against DMSO alone
5) Determination of the molar extinction coefficients of the ligand at 280 and 340 nm with help of an UV-spectrophotometer
6) Use Excel template for the correction of the measured raw data
7) Use GraphPad Prism software for the quadratic binding fit and the KD evaluation.

hCereblon(M1-L442)_hDDB1(M1-H1140), sequence (Q96SW2 whole entry): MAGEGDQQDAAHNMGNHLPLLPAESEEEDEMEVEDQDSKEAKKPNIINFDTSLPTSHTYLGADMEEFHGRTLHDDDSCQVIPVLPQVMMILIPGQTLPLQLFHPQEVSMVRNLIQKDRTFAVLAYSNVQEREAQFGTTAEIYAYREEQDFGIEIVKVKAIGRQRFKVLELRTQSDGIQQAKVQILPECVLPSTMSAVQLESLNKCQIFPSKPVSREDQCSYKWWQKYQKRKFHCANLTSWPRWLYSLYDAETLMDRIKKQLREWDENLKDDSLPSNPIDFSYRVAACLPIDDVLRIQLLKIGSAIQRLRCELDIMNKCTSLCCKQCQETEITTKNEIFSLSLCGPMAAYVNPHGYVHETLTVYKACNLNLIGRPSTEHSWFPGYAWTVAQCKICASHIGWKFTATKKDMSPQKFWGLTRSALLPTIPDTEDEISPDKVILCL
hCereblon(M1-L442)_hDDB1(M1-H1140), sequence (Q16531 whole entry partner): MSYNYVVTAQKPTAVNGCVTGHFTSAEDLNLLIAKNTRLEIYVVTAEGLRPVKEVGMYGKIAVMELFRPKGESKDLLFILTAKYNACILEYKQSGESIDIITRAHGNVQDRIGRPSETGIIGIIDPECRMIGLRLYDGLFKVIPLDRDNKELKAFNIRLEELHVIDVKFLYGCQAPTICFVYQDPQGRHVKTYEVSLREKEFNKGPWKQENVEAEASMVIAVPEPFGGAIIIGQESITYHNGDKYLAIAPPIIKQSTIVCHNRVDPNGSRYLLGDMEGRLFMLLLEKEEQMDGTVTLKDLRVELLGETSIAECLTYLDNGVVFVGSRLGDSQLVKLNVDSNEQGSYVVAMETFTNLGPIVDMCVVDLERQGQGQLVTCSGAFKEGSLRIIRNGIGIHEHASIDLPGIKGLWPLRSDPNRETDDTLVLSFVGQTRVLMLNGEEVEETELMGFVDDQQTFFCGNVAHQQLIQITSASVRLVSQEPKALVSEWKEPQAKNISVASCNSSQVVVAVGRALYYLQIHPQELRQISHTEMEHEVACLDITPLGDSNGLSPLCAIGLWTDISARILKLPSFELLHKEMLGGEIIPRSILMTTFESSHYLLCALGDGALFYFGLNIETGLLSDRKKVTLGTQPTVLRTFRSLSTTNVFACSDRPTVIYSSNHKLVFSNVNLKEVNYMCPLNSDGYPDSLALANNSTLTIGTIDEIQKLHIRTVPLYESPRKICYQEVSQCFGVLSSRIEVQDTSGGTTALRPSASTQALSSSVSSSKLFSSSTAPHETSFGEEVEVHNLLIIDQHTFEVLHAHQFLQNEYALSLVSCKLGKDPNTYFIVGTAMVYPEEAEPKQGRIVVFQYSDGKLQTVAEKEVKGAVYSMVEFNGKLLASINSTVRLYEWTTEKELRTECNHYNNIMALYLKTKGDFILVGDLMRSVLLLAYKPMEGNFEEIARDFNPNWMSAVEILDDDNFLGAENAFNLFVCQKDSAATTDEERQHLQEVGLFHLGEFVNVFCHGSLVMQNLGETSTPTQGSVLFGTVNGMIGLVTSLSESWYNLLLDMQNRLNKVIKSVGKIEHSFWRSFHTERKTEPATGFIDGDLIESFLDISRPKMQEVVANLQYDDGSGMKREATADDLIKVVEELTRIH

SMILES	Kd
CC(=O)Nc1ccc(CC(=O)N[C@H]2CCC(=O)NC2=O)cc1 [Example 65, (S)-2-(4-Acetamidophenyl)-N-(2,6-dioxopiperidin-3-yl)acetamide]	23 nM
CC(=O)Nc1ccc(CC(=O)N[C@@H]2CCC(=O)NC2=O)cc1 [Example 66, (R)-2-(4-Acetamidophenyl)-N-(2,6-dioxopiperidin-3-yl)acetamide]	86 nM
CC(=O)Nc1cccc(CC(=O)N[C@@H]2CCC(=O)NC2=O)c1 [Example 67, (R)-2-(3-Acetamidophenyl)-N-(2,6-dioxopiperidin-3-yl)acetamide]	3 nM
CC(=O)Nc1cccc(CC(=O)N[C@H]2CCC(=O)NC2=O)c1 [Example 68, (S)-2-(3-Acetamidophenyl)-N-(2,6-dioxopiperidin-3-yl)acetamide]	60 nM
O=C1CC[C@H](NC(=O)Cc2ccc3c(c2)CC(=O)N3)C(=O)N1 [Example 69, (S)-N-(2,6-Dioxopiperidin-3-yl)-2-(2-oxoindolin-5-yl)acetamide]	15 nM
O=C1CC[C@@H](NC(=O)Cc2ccc3c(c2)CC(=O)N3)C(=O)N1 [Example 70, (R)-N-(2,6-Dioxopiperidin-3-yl)-2-(2-oxoindolin-5-yl)acetamide]	3 nM
Cn1nc(C(=O)N[C@H]2CCC(=O)NC2=O)c2c1CCN(C(=O)OC(C)(C)C)C2 [Example 71, tert-Butyl (S)-3-((2,6-dioxopiperidin-3-yl)carbamoyl)-1-methyl-1,4,6,7-tetrahydro-5H-pyrazolo[4,3-c]pyridine-5-carboxylate]	4 nM
Cn1nc(C(=O)N[C@H]2CCC(=O)NC2=O)c2c1CCNC2 [Example 72, (S)-N-(2,6-Dioxopiperidin-3-yl)-1-methyl-4,5,6,7-tetrahydro-1H-pyrazolo[4,3-c]pyridine-3-carboxamide]	194 nM
CN1C(=O)CCC(NC(=O)[C@H]2CCCc3ccccc32)C1=O (stereo partly drawn) [Example 73, (1S)-N-(1-Methyl-2,6-dioxopiperidin-3-yl)-1,2,3,4-tetrahydronaphthalene-1-carboxamide]	28 nM
Cc1sc2c(c1C)C(c1ccc(Cl)cc1)=N[C@@H](CC(=O)NCCCCCC(=O)N1CC[C@H](C(=O)N[C@H]3CCC(=O)NC3=O)c3ccccc31)c1nnc(C)n1-2 [Example A, (4S)-1-[6-[[2-[(9S)-7-(4-Chlorophenyl)-4,5,13-trimethyl-3-thia-1,8,11,12-tetrazatricyclo[8.3.0.02,6]trideca-2(6),4,7,10,12-pentaen-9-yl]acetyl]amino]hexanoyl]-N-[(3S)-2,6-dioxo-3-piperidyl]-3,4-dihydro-2H-quinoline-4-carboxamide]	10 nM
Cc1sc2c(c1C)C(c1ccc(Cl)cc1)=N[C@@H](CC(=O)NCCCCCC(=O)N1CC[C@H](C(=O)N[C@@H]3CCC(=O)NC3=O)c3ccccc31)c1nnc(C)n1-2 [Example B, (4S)-1-[6-[[2-[(9S)-7-(4-Chlorophenyl)-4,5,13-trimethyl-3-thia-1,8,11,12-tetrazatricyclo[8.3.0.02,6]trideca-2(6),4,7,10,12-pentaen-9-yl]acetyl]amino]hexanoyl]-N-[(3R)-2,6-dioxo-3-piperidyl]-3,4-dihydro-2H-quinoline-4-carboxamide]	37 nM
Cc1sc2c(c1C)C(c1ccc(Cl)cc1)=N[C@@H](CC(=O)NCCOCCOCCOCC(=O)N1CC[C@@H](C(=O)N[C@H]3CCC(=O)NC3=O)c3ccccc31)c1nnc(C)n1-2 [Example C, (4R)-1-[2-[2-[2-[2-[[2-[(9S)-7-(4-Chlorophenyl)-4,5,13-trimethyl-3-thia-1,8,11,12-tetrazatricyclo[8.3.0.02,6]trideca-2(6),4,7,10,12-pentaen-9-yl]acetyl]amino]ethoxy]ethoxy]ethoxy]acetyl]-N-[(3S)-2,6-dioxo-3-piperidyl]-3,4-dihydro-2H-quinoline-4-carboxamide]	8 nM

Source: US11802131B2, “Glutarimides for medical treatment” (C4 Therapeutics, Inc., priority 2017, dated 2023)
